How the values were obtained:
[1] = test system: CD4+ and CD8+ T-cells in the peritoneum; assay: Zymosan-induced peritonitis: T-cells in peritoneal lavage; assay type: in vivo, mouse; conditions: i.p. day 5 after zymosan, phloretin 50 μM, antibody 5 μg/ml, 24 h
Protocol: The inventors used a well-established mouse model of zymosan-induced peritonitis, in which T-cells are recruited to the inflamed site 5 days after zymosan injection (Montero-Melendez et al 2011 Am J Pathol 179: 259-269). C57BL/6 mice were injected in the peritoneal cavity with zymosan (1 mg/mouse) on day 0 or left untreated. On day 5, Phloretin, an anti-Slc5a12 antibody or an isotype control antibody were injected into the peritoneal cavity. 24 hours later, mice were sacrificed and the peritoneal lavage was harvested.
(§1) In vivo zymosan-induced peritonitis: C57BL/6 mice were injected in the peritoneal cavity with zymosan (1 mg per mouse) on day 0 or left untreated. On day 5, Phloretin (50 μM), anti-Slc5a12 antibody (5 μg/ml) or anti-rabbit IgG isotype control antibody (5 μg/ml; Invitrogen) were injected into the peritoneal cavity. 24 hours later, mice were sacrificed and the peritoneal lavage was harvested. T-cells were stained for surface markers (CD4 and CD8; ebiosciences) and analyzed by FACS. This method was used in FIG. 6B and S6A-B. Alternatively C57BL/6 mice were injected in the peritoneal cavity with zymosan (1 mg per mouse) on day 0. […] T-cells were stained for surface markers (CD4 and CD8; ebiosciences) and analyzed by FACS. Cells were first gated on CD4 and subsequently analysed for CFSE positivity. […]

[2] = test system: CFSE-labelled CD4+ T-cells; assay: Zymosan-induced peritonitis: adoptive transfer of CFSE-labelled CD4+ T-cells; assay type: in vivo, mouse; conditions: co-injected i.p. day 5 after zymosan; 24 h
Protocol: To establish that the decrease in T-cell localization to the peritoneal cavity was at least in part due to their increased release from this site, the inventors performed adoptive transfer experiments whereby CFSE-labelled CD4+ T-cells were co-injected with anti-Slc5a12 antibody, phloretin or an isotype control antibody in the peritoneal cavity of mice which had received zymosan (1 mg/mouse) 5 days before, to create an environment rich of lactate (FIG. 12A). 24 hours after the intra-peritoneal injection of CFSE-labelled CD4+ T-cells, mice were sacrificed, and peritoneal lavage and spleen were harvested.
as §1, with “FACS.” for “FACS. This method was used in FIG. 6B and S6A-B. Alternatively C57BL/6 mice were injected in the peritoneal cavity with zymosan (1 mg per mouse) on day 0.”

Slc16a1 on CD8+ T-cells = target: T1, Slc16a1 on CD8+ T-cells (Mus musculus, UniProt P53986); assay: Blockade of Slc16a1: chemokinesis of CD8+ T-cells exposed to lactic-acid; assay type: cell-based; conditions: lactic-acid 10 mM; CHC 425 μM, phloretin 25 μM, antibody 2.5 μg/ml, AR-C155858 increasing concentrations
T1 construct: endogenous in cells
T1 sequence (P53986 1-493): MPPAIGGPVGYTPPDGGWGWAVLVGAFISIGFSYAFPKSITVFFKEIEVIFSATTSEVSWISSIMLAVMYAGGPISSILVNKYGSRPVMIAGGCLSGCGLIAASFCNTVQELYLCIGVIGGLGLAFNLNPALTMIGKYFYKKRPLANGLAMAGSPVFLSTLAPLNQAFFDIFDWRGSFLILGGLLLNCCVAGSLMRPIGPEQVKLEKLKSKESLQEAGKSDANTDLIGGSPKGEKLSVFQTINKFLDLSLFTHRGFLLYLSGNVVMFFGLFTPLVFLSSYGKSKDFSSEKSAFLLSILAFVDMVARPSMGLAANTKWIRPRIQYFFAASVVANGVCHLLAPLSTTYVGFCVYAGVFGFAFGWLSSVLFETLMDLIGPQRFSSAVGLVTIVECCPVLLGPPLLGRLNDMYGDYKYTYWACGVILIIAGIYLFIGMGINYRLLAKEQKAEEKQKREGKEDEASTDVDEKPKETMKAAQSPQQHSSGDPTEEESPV
T1 sequence (P18572 140-389 partner limits assumed): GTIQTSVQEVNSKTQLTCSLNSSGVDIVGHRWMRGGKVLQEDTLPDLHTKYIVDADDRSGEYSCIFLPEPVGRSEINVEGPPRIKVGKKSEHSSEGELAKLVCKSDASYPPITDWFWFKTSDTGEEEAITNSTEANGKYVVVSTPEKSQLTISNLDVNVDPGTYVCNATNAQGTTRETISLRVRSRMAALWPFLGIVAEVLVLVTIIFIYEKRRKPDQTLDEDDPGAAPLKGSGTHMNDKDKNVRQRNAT
Source text: (§2) T-cell isolation, in-vitro activation and subset enrichment: T-cells were isolated from C57BL/6 murine lymph nodes and activated for 3 to 5 days with plate bound anti-CD3 and anti-CD28 antibodies (BioLegend), and IL-2 (PeproTech). CD4+ and CD8+ subsets were enriched with commercially available CD4+ and CD8+ T-cell isolation kits according to the manufacturer's instructions (Easysep, Invitrogen) either prior or post activation according to experimental settings. Chemokinesis assays: Chemokinesis assays were performed in 5 μm transwell inlays. In some experiments, T-cells were pre-treated overnight with a number of drugs purchased from Calbiochem: Rapamycin (200 nM), 2-DG (1 mM), Metformin (2 mM). […] 3×10^6 lymphocytes were seeded in the upper transwell chamber; chemokines were added to the lower chamber: CXCL10 (300 ng/ml), CCL5 (50 ng/ml), CCL19/21 (200 ng/ml of each chemokine). Migrated T-cells were counted with a hemocytometer 2, 4 and 6 hours after seeding and % of migrated cells was calculated.

naive T-cells = assay: In vitro chemotaxis of naive T-cells towards CCL19/21; assay type: cell-based, mouse; conditions: CCL19/21 200 ng/ml each; Rapamycin 200 nM, 2-DG 1 mM, Metformin 2 mM
Source text: as §2

activated CD4+ T-cells [3] = assay: Extracellular acidification rate (ECAR), Seahorse analyzer, CD4+ T-cells; assay type: cell-based, mouse; conditions: for effect on glycolysis (ECAR trace) of metabolic drugs: 2-DG 1 mM, Rapamycin 200 nM, Metformin 2 mM, Etomoxir 100 μM
Protocol: (§3) Measurement of lactate, glycolysis, glucose uptake/flux and cell death: Lactate concentration was measured in the synovial fluid or peritoneal lavage using the Lactate assay Kit (Biovision), according to the manufacturer's instructions. Glycolytic metabolism was measured with a Seahorse XF24 Extracellular Flux Analyzer. Briefly, T-cells were grown in high glucose RPMI-1640 supplemented with 10% FCS. […] T-cell viability upon lactate or metabolic drug treatment was assessed by trypan blue exclusion assay.

activated CD4+ T-cells [4] = assay: In vivo peritoneal recruitment model (CXCL10 i.p.) of pre-treated activated CD4+ T-cells; conditions: cells pre-treated with Rapamycin 200 nM, 2-DG 1 mM, Metformin 2 mM; CXCL10 120 ng/mouse i.p.
Protocol: In vivo peritoneal recruitment model: All the in vivo experiments were conducted under the UK Home Office regulation (PPL 70/7443). Activated T-cells (5×10^6/mouse) were pre-treated overnight with Rapamycin (200 nM), 2-Deoxyglucose (1 mM) or Metformin (2 mM), then labelled with the fluorescent cell dye DDAO (Invitrogen) and injected intravenously into syngeneic female C57BL/6 mice that had 3 hours prior received an intraperitoneal injection of CXCL10 (120 ng/mouse). 24 hours after injection, mice were sacrificed and spleen and peritoneal lavage were harvested. T-cells were stained for surface markers (CD4 and CD8, ebiosciences) and analysed by FACS. Cells were first gated on CD4 and subsequently analysed for DDAO positivity. This method was used in FIG. 3G and S3E.

activated CD4+ T-cells [5] = assay: In vitro chemokinesis of activated CD4+ T-cells towards CXCL10 (transwell); assay type: cell-based, mouse; conditions: for chemokinesis in vitro towards CXCL10 of pre-treated activated CD4+ T-cells: pre-treated overnight: Rapamycin 200 nM, 2-DG 1 mM, Metformin 2 mM
Source text: as §2

activated CD4+ T-cells [6] = assay: Intracellular staining of IL-17 in activated CD4+ T-cells; assay type: cell-based, mouse; conditions: sodium-lactate 10 mM vs untreated
Protocol: Intracellular protein staining: Differentiated T-cells were incubated in permeabilization/fixation buffer (ebioscience) overnight at 4° C. Samples were washed in permeabilization buffer (ebioscience) and stained for the cytokines IFN-γ and IL-17, using fluorescently conjugated primary antibodies (1:200, ebiosciences) at 4° C. for 30 minutes, and assessed by flow cytometry using a LSR Fortessa (BD Biosciences) and FlowJo version 7.6.5 software.

activated CD4+ T-cells [7] = assay: Glucose uptake and flux with 2-NBDG / 6-NBDG in CD4+ T-cells; assay type: cell-based, mouse; conditions: 10 mM; 2-NBDG and 6-NBDG probes
Protocol: as §3

[8] = test system: CD4+ subsets Th0, Th1, Th2 and Th17; assay: qRT-PCR of cytokines and Rorc in Th0, Th1, Th2, Th17 subsets; assay type: cell-based, mouse; conditions: sodium-lactate 10 mM
Protocol: RNA isolation and reverse transcription: RNA was isolated from 10^6 cells or 10 mg RA synovial tissue using commercially available kits (Qiagen) or Trizol (Life) according to the manufacturer's instructions and assessed for quality and quantity using absorption measurements. Reverse transcription to cDNA was performed according to the manufacturer's instruction (Applied Biosystems).
qRT-PCR: Gene expression analysis was done using SYBR Green Supermix (Biorad) in CFX connect light cycler (Biorad), according to the manufacturer's instructions. Gene relative expression was calculated using the rlAct method and normalized to a reference control (RplpO). Primers for qRT-PCR were designed with the assistance of online tools (Primer 3PIus) using at least one exon junction binding site per primer pair where possible. A complete list of primers used is available in Table 2 below. Gene accession numbers are shown according to GenBank.
Th subset differentiation: T-cells were isolated from murine lymph nodes and enriched for CD3+ and subsequently CD4+ subsets. 10^6 cells were plated/well and differentiated towards Th0, Th1, Th2 and Th17 phenotype. Conditions were: Th0 (10 ng/ml IL-2); Th1 (10 ng/ml IL-2; 3.4 ng/ml IL-12; 2 μg/ml Anti-IL-4); Th2 (10 ng/ml IL-2; 10 ng/ml IL-4; 2 μg/ml Anti-IFN-γ); Th17 (10 ng/ml IL-6; 2 μg/ml Anti-IL-4; 2 μg/ml Anti-IFN-γ, 5 ng/ml TGF-β). All antibodies and cytokines were purchased from PeproTech.

activated CD4+ T-cells [9] = assay: CCL5-induced chemokinesis of activated CD4+ T-cells; assay type: cell-based, mouse; conditions: 10 mM; CCL5 50 ng/ml
Source text: as §2

activated CD8+ T-cells = assay: In vitro chemokinesis of activated CD8+ T-cells towards CXCL10 (transwell); assay type: cell-based, mouse; conditions: 10 mM lactic acid or sodium lactate; CXCL10 300 ng/ml
Source text: as §2

activated CD4+ T-cells [10] = assay: Western blot of glycolytic enzymes in activated CD4+ T-cells treated with CXCL10; assay type: cell-based, mouse; conditions: CXCL10 1000 ng/ml; sodium-lactate 10 mM
Protocol: Western blot: Protein lysates were prepared from activated T-cells in RIPA buffer. Proteins were separated with SDS-PAGE and transferred to a Nylon membrane (GE Healthcare). Membranes were blocked for 2 h at room temperature in 5% Milk/TBST, incubated overnight at 4° C. with primary antibodies (1:1000) and subsequently with HRP-conjugated secondary antibody (Amersham Bioscience) (1:5000). Antibodies against hexokinase 1, pyruvate kinase M1/2, Aldolase A, Enolase 1 and 6-actin were purchased from Cell Signaling; antibodies against Slc16a1 and Slc5a12 were purchased from Abeam.

Compound: O=C(CCc1ccc(O)cc1)c1c(O)cc(O)cc1O [phloretin]
- CD8+ T-cells in the peritoneum [1]: significant decrease
- CD4+ T-cells in the peritoneum ([1]; vs isotype control): did not show any effect
- adoptively transferred T-cells in the peritoneum [2]: not
- adoptively transferred T-cells in the spleen [2]: not
- chemokinesis of CD8+ T-cells exposed to lactic-acid upon blockade of Slc16a1 (Slc16a1 on CD8+ T-cells): restored

Compound: CN(C)C(=N)N=C(N)N [metformin]
- naive T-lymphocyte motility (naive T-cells): reduced
- effect on glycolysis (ECAR trace) of metabolic drugs (activated CD4+ T-cells [3]): activation of glycolysis
- chemokinesis in vivo: T-cell recruitment to the peritoneum (activated CD4+ T-cells [4]): increased
- chemokinesis in vitro towards CXCL10 of pre-treated activated CD4+ T-cells (activated CD4+ T-cells [5]): increased

Compound: N#CC(=Cc1ccc(O)cc1)C(=O)O [CHC, α-cyano-4-hydroxycinnamate]
- chemokinesis of CD8+ T-cells exposed to lactic-acid upon blockade of Slc16a1 (Slc16a1 on CD8+ T-cells): restored

Compound: CCOC(=O)[C@@]1(CCCCCCOc2ccc(Cl)cc2)CO1 [etomoxir]
- effect on glycolysis (ECAR trace) of metabolic drugs (activated CD4+ T-cells [3]): only minor effects

Compound: CC(O)C(=O)[O-].[Na+] (stereo not drawn) [sodium-lactate]
- expression of IL-17 protein in CD4+ cells (activated CD4+ T-cells [6]): increased
- glucose uptake and flux through glycolysis in CD4+ T-cells (activated CD4+ T-cells [7]): selectively blocks
- glycolysis (ECAR) of CXCL10-stimulated CD4+ T-cells (activated CD4+ T-cells [3]; CXCL10 1000 ng/ml, sodium-lactate 10 mM): shut down glycolysis
- ECAR of CD4+ T-cells, basal conditions (activated CD4+ T-cells [3]; sodium-lactate 10 mM, untreated control average 14 mpH/min): less than 5 mpH/min
- IL-17 gene expression in Th subsets ([8]; all the Th subsets): significant up-regulation
- Rorc gene expression in Th subsets ([8]; all the Th subsets): significantly elevated
- gene expression of Th1 and Th2 signature cytokines ([8]; reduced: IL-4, IL-5, IL-13 in Th17 subset): unmodified upon treatment with sodium-lactate or even reduced
- CXCL10-induced chemokinesis of activated CD4+ T-cells (activated CD4+ T-cells [5]; 10 mM lactic acid or sodium lactate, CXCL10 300 ng/ml): inhibited
- EC50 (activated CD4+ T-cells [5]; increasing concentration of sodium lactate, CXCL10 300 ng/ml, read-out: EC50 for decrease of migration of CD4+ T-cells): ~10 mM
- CCL5-induced migration of CD4+ T-cells (activated CD4+ T-cells [9]): decreased
- CXCL10-induced chemokinesis of activated CD8+ T-cells (activated CD8+ T-cells): not vice versa
- CXCL10-induced upregulation of glycolytic enzymes (activated CD4+ T-cells [10]): inhibited

Compound: O=CC[C@@H](O)[C@H](O)[C@H](O)CO [2-DG, 2-deoxyglucose]
- naive T-lymphocyte motility (naive T-cells): decrease
- effect on glycolysis (ECAR trace) of metabolic drugs (activated CD4+ T-cells [3]): inhibition of glycolysis
- chemokinesis in vivo: T-cell recruitment to the peritoneum (activated CD4+ T-cells [4]): decrease
- chemokinesis in vitro towards CXCL10 of pre-treated activated CD4+ T-cells (activated CD4+ T-cells [5]): decrease
